Test results from patent US12018009B2, “ALDH-2 inhibitor compounds and methods of use” (Amygdala Neurosciences, Inc., priority 2022, dated 2024).

Experiments:
MAO-B = biological target: T1, MAO-B (Homo sapiens, UniProt P27338); test: MAO-B inhibition assay (luminogenic substrate); type: biochemical; settings: 20 min pre-incubation; 10 μM = highest concentration tested; read-out: Enzymatic Assays IC50 MAO-B
T1 sequence (P27338 1-520): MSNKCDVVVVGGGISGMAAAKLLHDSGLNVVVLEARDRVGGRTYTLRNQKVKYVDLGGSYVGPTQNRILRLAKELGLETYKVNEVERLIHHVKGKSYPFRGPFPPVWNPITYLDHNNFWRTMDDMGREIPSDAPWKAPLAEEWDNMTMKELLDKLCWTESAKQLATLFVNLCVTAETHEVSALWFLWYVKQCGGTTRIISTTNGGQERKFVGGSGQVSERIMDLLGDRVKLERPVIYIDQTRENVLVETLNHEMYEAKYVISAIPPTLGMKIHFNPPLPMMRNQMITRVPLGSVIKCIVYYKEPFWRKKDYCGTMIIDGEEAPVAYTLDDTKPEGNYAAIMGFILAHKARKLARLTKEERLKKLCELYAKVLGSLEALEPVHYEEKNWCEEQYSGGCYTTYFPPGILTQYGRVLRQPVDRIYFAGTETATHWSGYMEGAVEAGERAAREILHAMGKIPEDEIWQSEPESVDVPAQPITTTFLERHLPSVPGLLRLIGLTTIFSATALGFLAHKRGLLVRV
Procedure: (§1) D. MAO-A and MAO-B inhibition assays: MAO assays included luminogenic MAO substrate, reaction buffers, Luciferin Detection, and a reconstitution buffer with esterase. The MAO reaction mixture used in the assay included microsome contained MAO-A (2 μg) or MAO-B (10 μg), 160 μM substrate for MAO-A or 16 μM substrate for MAO-B, MAO-A buffer (100 mM Hepes buffer, pH 7.5, 5% glycerol) or MAO-B buffer (100 mM Hepes, pH 7.5, 5% glycerol, 10% dimethyl sulfoxide) in a final volume of 30 μL. After 20 minutes of pre-incubation of the MAO-A or MAO-B enzyme with the test ALDH-2 inhibitor compound, the reaction was initiated by adding enzyme substrate and the […] reaction was allowed to proceed for 60 minutes. Reconstituted Luciferin Detection Reagent (30 μL) was then added is added to simultaneously stop the MAO reaction and convert the methyl ester derivative to luciferin and produce light. The amount of light produced is directly proportional to the activity of MAO. The mixtures were further incubated for 20 minutes and activity of the enzyme was determined using Perkin-Elmer Envision Reader.

recombinant human ALDH-2 = biological target: T2, recombinant human ALDH-2 (Homo sapiens, UniProt P05091); test: ALDH-2 inhibition assay; type: biochemical; settings: 60 min pre-incubation; 10 μM = highest concentration tested; read-out: Enzymatic Assays IC50 ALDH2
T2 sequence (P05091 18-517): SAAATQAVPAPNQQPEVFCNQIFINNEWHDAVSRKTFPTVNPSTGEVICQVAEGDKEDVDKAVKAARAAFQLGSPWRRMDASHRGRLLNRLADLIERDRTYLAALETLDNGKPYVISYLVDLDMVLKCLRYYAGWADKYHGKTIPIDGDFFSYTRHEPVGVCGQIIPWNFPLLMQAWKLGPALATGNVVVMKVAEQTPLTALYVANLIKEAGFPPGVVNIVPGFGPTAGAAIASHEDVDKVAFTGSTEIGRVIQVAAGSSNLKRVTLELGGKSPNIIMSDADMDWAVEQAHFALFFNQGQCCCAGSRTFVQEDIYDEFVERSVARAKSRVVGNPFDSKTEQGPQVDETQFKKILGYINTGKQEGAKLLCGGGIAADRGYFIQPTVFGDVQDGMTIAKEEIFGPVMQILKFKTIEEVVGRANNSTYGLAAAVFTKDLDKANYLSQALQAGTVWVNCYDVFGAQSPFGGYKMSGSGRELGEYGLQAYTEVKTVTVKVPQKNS
Procedure: A. ALDH-2 inhibition assay: The ALDH-2 reaction mixture used in the assay contained 125 μM formaldehyde, 75 μM NAD+, 20 mM NaCl, 10 mM MgCl2, and 20 nM recombinant human ALDH-2 in 50 mM Hepes buffer, pH 7.5 in a final volume of 10 μL using 384-well Corning 3820 plates. After 60 min of pre-incubation of the test ALDH-2 inhibitor compound with ALDH-2, the reaction was started by adding NAD+ and formaldehyde and the assay reaction mixture was allowed to proceed for 60 minutes. Activity of the ALDH-2 enzyme was determined by monitoring NADH formation using Perkin-Elmer Envision Reader with excitation and emission wavelengths set at 340 and 460 nm, respectively.

recombinant human ALDH-1 = biological target: T3, recombinant human ALDH-1 (Homo sapiens, UniProt P00352); test: ALDH-1 inhibition assay; type: biochemical; settings: 60 min pre-incubation; 10 μM = highest concentration tested; read-out: Enzymatic Assays IC50 ALDH-1
T3 sequence (P00352 1-501): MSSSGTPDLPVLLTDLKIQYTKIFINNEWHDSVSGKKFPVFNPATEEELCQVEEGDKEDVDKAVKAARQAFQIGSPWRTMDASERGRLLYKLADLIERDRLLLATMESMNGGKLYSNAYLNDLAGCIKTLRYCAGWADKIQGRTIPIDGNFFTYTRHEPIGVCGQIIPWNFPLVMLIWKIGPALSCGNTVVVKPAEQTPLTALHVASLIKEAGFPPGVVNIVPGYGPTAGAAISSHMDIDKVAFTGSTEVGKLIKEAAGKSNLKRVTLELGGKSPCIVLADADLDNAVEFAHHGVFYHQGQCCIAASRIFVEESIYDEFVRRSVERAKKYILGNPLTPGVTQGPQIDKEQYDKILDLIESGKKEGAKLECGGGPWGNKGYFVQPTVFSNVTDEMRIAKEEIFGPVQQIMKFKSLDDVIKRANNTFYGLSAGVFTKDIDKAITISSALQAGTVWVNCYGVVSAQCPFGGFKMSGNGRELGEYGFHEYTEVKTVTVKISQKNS
Procedure: B. ALDH-1 inhibition assay: The ALDH-1 reaction mixture used in the assay contained 100 μM formaldehyde, 2.5 mM NAD+, 20 mM NaCl, 10 mM MgCl2, 1 mM dithiothreitol (DTT; reducing agent), and 50 nM recombinant human ALDH-1 in 50 mM Hepes buffer, pH 7.5 in a final volume of 10 μL using 384-well Corning 3820 plates. After 60 min of pre-incubation of the test ALDH-2 inhibitor compound with ALDH-1, the reaction was started by adding NAD+ and formaldehyde and the assay reaction mixture was allowed to proceed for 60 minutes. Activity of the ALDH-1 enzyme was determined by monitoring NADH formation using Perkin-Elmer Envision Reader with excitation and emission wavelengths set at 340 and 460 nm, respectively.

MAO-A = biological target: T4, MAO-A (Homo sapiens, UniProt P21397); test: MAO-A inhibition assay (luminogenic substrate); type: biochemical; settings: 20 min pre-incubation; 10 μM = highest concentration tested; read-out: Enzymatic Assays IC50 MAO-A
T4 sequence (P21397 1-527): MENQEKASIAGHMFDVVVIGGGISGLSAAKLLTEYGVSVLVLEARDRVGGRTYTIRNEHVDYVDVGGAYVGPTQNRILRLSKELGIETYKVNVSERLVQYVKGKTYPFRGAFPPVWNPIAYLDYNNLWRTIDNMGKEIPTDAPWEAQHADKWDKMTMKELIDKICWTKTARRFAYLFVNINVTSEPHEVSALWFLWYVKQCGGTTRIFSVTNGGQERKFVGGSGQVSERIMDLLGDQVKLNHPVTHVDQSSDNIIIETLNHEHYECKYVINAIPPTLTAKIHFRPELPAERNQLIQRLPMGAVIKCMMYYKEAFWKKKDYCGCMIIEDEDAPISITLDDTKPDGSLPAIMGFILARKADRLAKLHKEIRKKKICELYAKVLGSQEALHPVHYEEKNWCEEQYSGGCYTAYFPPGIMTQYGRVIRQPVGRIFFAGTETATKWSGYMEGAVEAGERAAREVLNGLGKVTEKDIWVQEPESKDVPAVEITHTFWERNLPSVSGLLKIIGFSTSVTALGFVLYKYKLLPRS
Procedure: as §1

[1] = O'Malley et al. 2021; cited from earlier work

IC50 (MAO-B) [µM] | IC50 (recombinant human ALDH-2) [µM] | IC50 (recombinant human ALDH-1) [µM] | IC50 (MAO-A) [µM] | Structure (SMILES) | hepatotoxicity in humans [1]
> 10 | 0.264 | > 10 | > 10 | O=C1CN(c2ncc(CNC(=O)c3ccccc3Cl)cn2)CCN1 [(1b), 2-Chloro-N-((2-(3-oxopiperazin-1-yl)pyrimidin-5-yl)methyl)benzamide] | –
> 10 | 0.089 | > 10 | > 10 | Cc1cccc(Cl)c1C(=O)NCc1cnc(N2CCNC(=O)C2)nc1 [(1a), 2-Chloro-6-methyl-N-((2-(3-oxopiperazin-1-yl)pyrimidin-5-yl)methyl)benzamide] | –
> 10 | 0.088 | > 10 | > 10 | Cc1nccc(Cl)c1C(=O)NCc1cnc(N2CCNC(=O)C2)nc1 [(1c), 4-Chloro-2-methyl-N-((2-(3-oxopiperazin-1-yl)pyrimidin-5-yl)methyl)nicotinamide] | –
– | – | – | – | O=C(NCc1ccc(-c2cc[nH]c(=O)c2)cc1)c1c(Cl)cccc1Cl [2,6-dichloro-N-[4-(2-oxo-1,2-dihydro-pyridin-4-yl)-benzyl]-benzamide] | high levels of hepatotoxicity
